Here are results for 22 molecules from patent US12673930B2, “Thiophene HSD17B13 inhibitors and uses thereof” (INIPHARM, INC., priority 2020, dated 2026).

What is called IC50 is the concentration at which inhibition is half-maximal. The low end stands for greater potency in that assay, the high end for weaker potency in that assay.

In test [1] the target is T1, HSD17B13 enzyme (Homo sapiens, UniProt Q7Z5P4).
T1 construct: His; made in house; host or cells: E. coli
T1 sequence (Q7Z5P4 20-300): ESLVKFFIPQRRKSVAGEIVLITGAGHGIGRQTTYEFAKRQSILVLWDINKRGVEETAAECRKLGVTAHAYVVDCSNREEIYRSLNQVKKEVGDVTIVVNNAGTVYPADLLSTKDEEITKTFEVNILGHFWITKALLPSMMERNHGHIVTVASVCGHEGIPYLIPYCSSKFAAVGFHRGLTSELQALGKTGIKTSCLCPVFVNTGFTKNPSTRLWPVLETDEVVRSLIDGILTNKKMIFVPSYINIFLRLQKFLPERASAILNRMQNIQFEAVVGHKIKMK
Put plainly: LC/MS estrone detection assay (conversion of estradiol to estrone by HSD17B13). It counts as biochemical. To be noted: substrate 4 μM estradiol, 6 mM NAD+, 30 nM HSD17B13 enzyme, 2 hours at 26.5° C. How it is done:
The liquid chromatography/mass spectrometry (LC/MS) estrone detection assay monitors the conversion of estradiol to estrone by HSD17B13. This assay was performed in a 96 wp format (Eppendorf deep well Plate 96/500) in an 80 μl reaction volume containing: 4 μM estradiol (E2; Cayman; Ser. No. 10/006,315); 6 mM NAD^+ (Sigma; #N0623), and 30 nM HSD17B13 enzyme (in-house; E. coli expressed His-tagged, purified, soluble protein), in a buffer containing 1M potassium phosphate buffer pH 7.4 and 0.5% vehicle (DMSO). Reactions were incubated for 2 hours at 26.5° C., and estradiol (E2) conversion to estrone (E1) was quantitated by LC-MS/MS based analyte detection for E1 using LCMS grade reagents. Reactions were terminated by the addition of two volumes of acetonitrile (MeCN; LCMS grade; CAS #75/05/8) containing deuterated (D4)-E1 as internal standard (Clear Synth; #CS-T-54273; 500 ng/mL final concentration). Samples were applied to pre-prepared Bond Elut-C18 extraction cartridges (3 mL; Agilent; Ser. No. 12/102,028), and washed and eluted in MeCN. Eluates were dried under nitrogen and re-suspended in 60% methanol (LCMS grade methanol; CAS #67/56/1) before submission for analysis. Standard curves for E1 were included for quantification. Analysis of samples was undertaken on a XBridge BEH C18 column (Waters; #186003033) using 0.1% Diethyl Amine in MeCN (mobile phase A; DEA CAS #109-89-7) and 0.1% Diethyl Amine in milli-Q water (mobile phase B) in a 3 min gradient up to 25% B. Analytes were detected in negative mode using MRM analysis, with E2 having a RT of 1.85 min and E1 having a RT of 2 min. Activity of the enzyme in the absence of NAD^+, was subtracted from samples to yield values for specific enzyme activity. Enzyme activity in the presence of test samples was expressed as a percentage of the uninhibited enzyme activity, and plotted versus inhibitor concentration. Non-linear regression was performed using the Morrison equation (see below) for tight binding inhibitors on GraphPad Prism software (GraphPad Software, La Jolla, Calif.). All assessments were undertaken in duplicate evaluations which were pooled during the extraction process and subsequently injected as duplicates for LC-MS/MS analysis. Y=Vo*(1−((((Et+X+Q)−(((Et+X+Q)^2)−4*Et*X)^0.5))/(2*Et))) Morrison equation:
Y=Activity in the presence of inhibitor; Vo=Activity in absence of inhibitor; Et=Total enzyme concentration; X=inhibitor concentration; and Q=(Ki*(1+(S/Km))), where Ki is the inhibition constant, Km is the Michaelis constant, and S is the substrate concentration.

The target in test [2] is T1, HSD17B13 enzyme. In words: NADH detection assay (fluorescence based Leukotriene B3 (LTB3) assay) for HSD17B13 activity. It is filed as biochemical. As to conditions: substrate 25 μM LTB3, 3 mM NAD+, 125 nM HSD17B13 enzyme, 1 hour at 26.5° C. The method, then: The fluorescence based Leukotriene B3 (LTB3) assay monitors the fluorescence of NADH, which is generated from NAD+ during the dehydrogenation of the substrate LTB3. The reactions were performed in a 384-well plates (Greiner; #655076) in a 20 μl reaction volume containing the following reagents (final concentrations): 25 μM LTB3 (Cayman; #20109); 3 mM NAD^+ (Sigma; #N0623); 125 nM HSD17B13 enzyme (in-house; E. coli expressed His-tagged, purified, soluble protein); 1 M potassium phosphate buffer, pH 7.4; and 1% DMSO. Reactions were initiated by co-addition of NAD+ and enzyme, and monitored for 1 hour at 26.5° C. Generation of NADH was measured as the fluorescence signal (Excitation at 340 nm and Emission at 445 nm) at 1 hour minus the baseline fluorescence at t=0. Fluorescence signals in the absence of LTB3 (negative control values), were subtracted from all values so that the results reflected substrate-dependent production of NADH. NADH standards were included to allow the conversion of relative fluorescence units into rates of enzyme activity. Enzyme activity in the presence of test compounds was expressed as a percentage of the uninhibited enzyme activity, and plotted versus inhibitor concentration. Non-linear regression was performed using a four-parameter logistic model and Microsoft Excel Solver® software. Ten concentrations of inhibitor were tested in duplicate (in the range of 30 μM-2.5 nM). Two independent concentration response assays were performed and the geometric mean is reported, =/−the SEM.

Structures are written as SMILES.

For the molecule `COc1ccccc1CCNC(=O)c1c(NC(=O)c2ccc(O)c(Cl)c2)sc2c1CCCC2` [Example 14, 2-(3-chloro-4-hydroxybenzamido)-N-(2-methoxyphenethyl)-4,5,6,7-tetrahydrobenzo[b]thiophene-3-carboxamide], the IC50 against HSD17B13 enzyme [1] was in the range of 100 to 1000 nM; at HSD17B13 enzyme [2] it was 1000 to 5000 nM.
For `COc1ccccc1CCNC(=O)c1sccc1NC(=O)c1ccc(O)c(C(F)(F)F)c1` [Example 33, 3-(4-hydroxy-3-(trifluoromethyl)benzamido)-N-(2-methoxyphenethyl)thiophene-2-carboxamide], in that order: not above 100 nM and more than 10000 nM.
For the molecule `COc1ccccc1CCNC(=O)c1sc2nccnc2c1NC(=O)c1ccc(O)c(Cl)c1` [Example 12, 7-(3-chloro-4-hydroxybenzamido)-N-(2-methoxyphenethyl)thieno[2,3-b]pyrazine-6-carboxamide], the IC50 against HSD17B13 enzyme [1] was 100 to 1000 nM; at HSD17B13 enzyme [2], 1000 to 5000 nM.
For `O=C(Nc1ccsc1C(=O)NCCc1ccccc1F)c1ccc(O)c(Cl)c1` [Example 9, 3-(3-chloro-4-hydroxybenzamido)-N-(2-fluorophenethyl)thiophene-2-carboxamide], in that order: not above 100 nM and not above 1000 nM.
On the same counts, the results for `COc1ccccc1CCNC(=O)c1c(NC(=O)c2ccc(O)c(F)c2)sc(C)c1C` [Example 16, 2-(3-fluoro-4-hydroxybenzamido)-N-(2-methoxyphenethyl)-4,5-dimethylthiophene-3-carboxamide] are not above 100 nM and not above 1000 nM.
For `COc1ccccc1CCNC(=O)c1sc2ccccc2c1NC(=O)c1ccc(O)c(Cl)c1` [Example 31, 3-(3-chloro-4-hydroxybenzamido)-N-(2-methoxyphenethyl)benzo[b] thiophene-2-carboxamide], in that order: 100 to 1000 nM and not above 1000 nM.
`COc1ccccc1CCNC(=O)c1sccc1NC(=O)c1ccncc1` [Example 10, N-(2-((2-methoxyphenethyl)carbamoyl)thiophen-3-yl)isonicotinamide]: the IC50 against HSD17B13 enzyme [1] and against HSD17B13 enzyme [2] was more than 10000 nM throughout.
For the molecule `COc1ccccc1CCNC(=O)c1sccc1NC(=O)c1ccc(O)c(Cl)c1` [Example 1, 3-(3-chloro-4-hydroxybenzamido)-N-(2-methoxyphenethyl)thiophene-2-carboxamide], the half-inhibitory concentration (IC50) is not above 100 nM against HSD17B13 enzyme [1] and not above 1000 nM on HSD17B13 enzyme [2].
For `COc1ccccc1CCNC(=O)c1ccsc1NC(=O)c1ccc(O)c(Cl)c1` [Example 13, 2-(3-chloro-4-hydroxybenzamido)-N-(2-methoxyphenethyl)thiophene-3-carboxamide], the IC50 against HSD17B13 enzyme [1] is not above 100 nM; at HSD17B13 enzyme [2] it was not above 1000 nM.
For `CCNC(=O)c1sccc1NC(=O)c1ccc(O)c(Cl)c1` [Example 5, 3-(3-chloro-4-hydroxybenzamido)-N-ethylthiophene-2-carboxamide], in that order: 100 to 1000 nM and not above 1000 nM.
On the same counts, the results for `COc1ccccc1CCNC(=O)c1sccc1NC(=O)c1ccc(C(F)(F)C(=O)O)c(F)c1` [Example 27, 2,2-difluoro-2-(2-fluoro-4-((2-((2-methoxyphenethyl)carbamoyl)thiophen-3-yl)carbamoyl)phenyl)acetic acid] are more than 10000 nM and more than 10000 nM.
Take `COc1ccncc1CCNC(=O)c1sccc1NC(=O)c1ccc(O)c(Cl)c1` [Example 7, 3-(3-chloro-4-hydroxybenzamido)-N-(2-(4-methoxypyridin-3-yl)ethyl)thiophene-2-carboxamide]: the 50% inhibitory concentration (IC50) against HSD17B13 enzyme [1] is 100 to 1000 nM; against HSD17B13 enzyme [2], not above 1000 nM.
Take `CC(C)(C)CCNC(=O)c1sccc1NC(=O)c1cc(F)c(O)c(F)c1` [Example 18, 3-(3,5-difluoro-4-hydroxybenzamido)-N-(3,3-dimethylbutyl)thiophene-2-carboxamide]: the IC50 against HSD17B13 enzyme [1] was not above 100 nM; against HSD17B13 enzyme [2], not above 1000 nM.
For `CC(C)(C)CCNC(=O)c1sccc1NC(=O)c1ccc(O)c(Cl)c1` [Example 3, 3-(3-chloro-4-hydroxybenzamido)-N-(3,3-dimethylbutyl)thiophene-2-carboxamide], in that order: not above 100 nM and not above 1000 nM.
For `COc1ccccc1CNC(=O)c1sccc1NC(=O)c1ccc(O)c(Cl)c1` [Example 8, 3-(3-chloro-4-hydroxybenzamido)-N-(2-methoxybenzyl)thiophene-2-carboxamide], in that order: not above 100 nM and not above 1000 nM.
With `COc1ccccc1CCNC(=O)c1sc(Cl)cc1NC(=O)c1ccc(O)c(Cl)c1` [Example 17, 5-chloro-3-(3-chloro-4-hydroxybenzamido)-N-(2-methoxyphenethyl)thiophene-2-carboxamide], the IC50 was not above 100 nM against HSD17B13 enzyme [1] and not above 1000 nM against HSD17B13 enzyme [2].
On the same counts, the results for `CC(C)CNC(=O)c1sccc1NC(=O)c1ccc(O)c(Cl)c1` [Example 2, 3-(3-chloro-4-hydroxybenzamido)-N-isobutylthiophene-2-carboxamide] are not above 100 nM and not above 1000 nM.
For `COc1ccccc1CCNC(=O)c1sccc1NC(=O)c1ccc(OC(F)(F)C(=O)O)c(Cl)c1` [Example 25, 2-(2-chloro-4-((2-((2-methoxyphenethyl)carbamoyl)thiophen-3-yl)carbamoyl)phenoxy)-2,2-difluoroacetic acid], in that order: 1000 to 10000 nM and more than 10000 nM.
For `COc1ccccc1CCNC(=O)c1sccc1NC(=O)c1ccc(O)c(F)c1` [Example 30, 3-(3-fluoro-4-hydroxybenzamido)-N-(2-methoxyphenethyl)thiophene-2-carboxamide], in that order: not above 100 nM and not above 1000 nM.
On to `CC(C)(C)CCNC(=O)c1sc2cnccc2c1NC(=O)c1ccc(O)c(F)c1` [Example 19, N-(3,3-dimethylbutyl)-3-(3-fluoro-4-hydroxybenzamido)thieno[2,3-c]pyridine-2-carboxamide], for which the IC50 against HSD17B13 enzyme [1] is 100 to 1000 nM; on HSD17B13 enzyme [2], more than 10000 nM.
With `COc1ccccc1CCNC(=O)c1sccc1NC(=O)c1ccc(S(=O)(=O)NC(=O)c2ccccc2)c(Cl)c1` [Example 24, 3-(4-(N-benzoylsulfamoyl)-3-chlorobenzamido)-N-(2-methoxyphenethyl)thiophene-2-carboxamide], the values for the IC50 at HSD17B13 enzyme [1] and against HSD17B13 enzyme [2] were 1000 to 10000 nM and more than 10000 nM, respectively.
On the same counts, the results for `COc1ccccc1CCNC(=O)c1sccc1NC(=O)c1ccc(N2CCC(C(=O)O)C2)c(Cl)c1` (centres unmarked) [Example 29, 1-(2-chloro-4-((2-((2-methoxyphenethyl)carbamoyl)thiophen-3-yl)carbamoyl)phenyl)pyrrolidine-3-carboxylic acid] are 1000 to 10000 nM and more than 10000 nM.
